Measured values taken from patent US20160084823A1, “METHODS AND KITS FOR TESTING THE GE[…] AN AGENT” (INSERM (INSTITUT NATIONAL DE LA SANTÉ ET DE LA RECHERCHE …, priority 2013, published 2016).

Test system: p53 target genes (KIAA0284; PODXL1; RRAD; FHL2; TP53I3)
Assay: p53 genotoxicity assay: RT-QMPSF of p53 target gene induction in EBV-immortalized human lymphocytes (wild type TP53 vs p.R175H)
Settings: 0.3 μM doxorubicin; lymphocytes from a healthy control and from a Li-Fraumeni patient with p.R175H germline mutation; FIG. 2
Method: In the first version of this assay EBV-immortalized human lymphocytes derived from healthy blood donor with wild type TP53 or Li-Fraumeni patients harboring germline heterozygous TP53 mutations are cultured in 24 well plates, during 5 h, with or without the chemicals to test. RNA is then extracted using Nucleospin RNAII kit (Macherey Nagel). […] RT-QMPSF analysis using 5 TP53 target genes and 2 control amplicons are performed on cells treated or not with the chemicals and profiles were compared after normalization on controls amplicons.
In each case, the TP53 genotype of EBV-immortalized lymphocytes was checked by sequencing and QMPSF analyses. EBV-transformed lymphocytes were maintained in RPMI 1640 medium (GIBCO, Invitrogen), supplemented with 10% heat-inactivated fetal bovine serum (Invitrogen) at 37° C. with 5% CO2. […]
After treatment cells were centrifuged, lysed using RA1 reagent from Nucleospin RNAII (Macherey Nagel), RNA was extracted following the manufacturer's instructions and quantified using a ND-1000 UV-Vis Spectrophotometer (NanoDrop technologies). The integrity of the RNA was assessed with the Agilent 2100 Bioanalyzer (Agilent), according to the manufacturer's instructions. […]

## COc1cccc2c1C(=O)c1c(O)c3c(c(O)c1C2=O)C[C@@](O)(C(=O)CO)C[C@@H]3O[C@H]1C[C@H](N)[C@H](O)[C@H](C)O1 [doxorubicin]
  expression induction of p53 target genes (RT-QMPSF): showed clearly expression induction of 5 p53 target genes (KIAA0284; PODXL1; RRAD; FHL2; TP53I3) specifically in control lymphocytes
